One assay concerns the target T1, JAK3 (Homo sapiens, UniProt P52333).
T1 construct: recombinant purified GST-tagged catalytic domain for each enzyme; purchased Invitrogen M4290
Put plainly: Jak Biochemical HTRF Assay (JAK3). Conditions: recombinant purified GST-tagged catalytic domain, [ATP] 2.9 μM, values given as range classes. The gist of the method:
(§1)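 GST-tagged recombinant catalytic domain and biotinylated peptide substrate were preincubated with compound for 30 min at room temperature in kinase buffer with 2 mM DTT and 0.05% BSA. ATP then started a 120 min reaction. Phosphopeptide was detected by HTRF (Eu-pY20/streptavidin-Dylight 650, 665/615 nm ratio), and IC50 came from a 4-parameter fit of percent inhibition.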

The next assay deals with T2, JAK2 (Homo sapiens, UniProt O60674).
T2 construct: recombinant purified GST-tagged catalytic domain for each enzyme; purchased Invitrogen M4290
T2 sequence (O60674 849-1124 limits assumed): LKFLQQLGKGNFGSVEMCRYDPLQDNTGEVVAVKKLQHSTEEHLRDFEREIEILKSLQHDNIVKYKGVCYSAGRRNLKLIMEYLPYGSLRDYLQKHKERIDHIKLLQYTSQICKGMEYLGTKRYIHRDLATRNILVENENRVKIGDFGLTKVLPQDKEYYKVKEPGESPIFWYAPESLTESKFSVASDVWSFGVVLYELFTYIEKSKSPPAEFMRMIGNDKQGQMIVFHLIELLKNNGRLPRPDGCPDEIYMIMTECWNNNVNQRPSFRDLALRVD
Put plainly: Jak Biochemical HTRF Assay (JAK2). Conditions: recombinant purified GST-tagged catalytic domain, [ATP] 8.5 μM, values given as range classes. The gist of the method: as §1

From patent US9096598B2 (Merck Sharp & Dohme Corp., priority 2011, dated 2015) come the findings set out here.

T1 sequence (P52333 822-1111 limits assumed): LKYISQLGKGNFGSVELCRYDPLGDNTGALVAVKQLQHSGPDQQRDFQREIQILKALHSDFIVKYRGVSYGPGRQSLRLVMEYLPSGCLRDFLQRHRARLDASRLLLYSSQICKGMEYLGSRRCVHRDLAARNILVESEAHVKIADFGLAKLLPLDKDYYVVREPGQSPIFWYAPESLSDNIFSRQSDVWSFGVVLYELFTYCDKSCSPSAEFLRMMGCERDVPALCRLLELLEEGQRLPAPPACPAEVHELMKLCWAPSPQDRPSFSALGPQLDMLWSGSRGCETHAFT

Take `COCC(=O)Nc1cnc2[nH]cc(-c3cncc(N[C@H](C(=O)NCC(F)(F)F)C(C)C)c3)c2c1` [Example 5-8, N~2~-(5-{5-[(methoxyacetyl)amino]-1H-pyrrolo[2,3-b]pyridin-3-yl}pyridin-3-yl)-N-(2,2,2-trifluoroethyl)valinamide]: the IC50 at JAK3 was no more than 10 nM; on JAK2, 10 to 500 nM.
For `CC(C)[C@@H](Nc1cncc(-c2c[nH]c3ncc(C(=O)NCC4(O)CC4)cc23)c1)C(=O)NCC(F)(F)F` [Example 3-14, N-[(1-hydroxycyclopropyl)methyl]-3-[5-({(1R)-2-methyl-1-[(2,2,2-trifluoroethyl)carbamoyl]propyl}amino)pyridin-3-yl]-1H-pyrrolo[2,3-b]pyridine-5-carboxamide] the same measures were no more than 10 nM and no more than 10 nM.
For `CC(C)C(Nc1cncc(-c2c[nH]c3ncc(NS(C)(=O)=O)cc23)c1)C(=O)NCC(F)(F)F` (racemic) [Example 5-3, N^2-(5-{5-[(methylsulfonyl)amino]-1H-pyrrolo[2,3-b]pyridin-3-yl}pyridin-3-yl)-N-(2,2,2-trifluoroethyl)valinamide] the same measures were 10 to 500 nM and 10 to 500 nM.
For `O=C(NCC(F)(F)F)[C@H]1CCCC[C@H]1Nc1cnnc(-c2c[nH]c3ncc(F)cc23)n1` [Example 1-21, (1S,2R)-2-{[3-(5-fluoro-1H-pyrrolo[2,3-b]pyridin-3-yl)-1,2,4-triazin-5-yl]amino}-N-(2,2,2-trifluoroethyl)cyclohexane-carboxamide], the concentration for half-maximal inhibition (IC50) was 10 to 500 nM at JAK3 and greater than 500 nM on JAK2.
For `CC(C)NC(=O)Nc1cnc2[nH]cc(-c3cncc(N[C@H](C(=O)NCC(F)(F)F)C(C)C)c3)c2c1` [Example 6-1, N^2-(5-{5-[(propan-2-ylcarbamoyl)amino]-1H-pyrrolo[2,3-b]pyridin-3-yl}pyridin-3-yl)-N-(2,2,2-trifluoroethyl)valinamide] the same measures were no more than 10 nM and 10 to 500 nM.
For `CC(C)C(Nc1cncc(-c2c[nH]c3ncc(F)cc23)c1)C(=O)NCC(F)(F)F` (stereo not shown) [Example 1-2, 2-{[5-(5-fluoro-1H-pyrrolo[2,3-b]pyridin-3-yl)pyridin-3-yl]amino}-3-methyl-N-(2,2,2-trifluoroethyl)butanamide] the same measures were no more than 10 nM and 10 to 500 nM.
For `CC(C)C(Nc1cncc(-c2c[nH]c3ncc(CNC(=O)C4CCCC4)cc23)c1)C(=O)NCC(F)(F)F` (stereo not shown) [Example 10-1, N-((3-(5-(3-methyl-1-oxo-1-(2,2,2-trifluoroethylamino)butan-2-ylamino)pyridin-3-yl)-1H-pyrrolo[2,3-b]pyridin-5-yl)methyl)cyclopentanecarboxamide] the same measures were 10 to 500 nM and greater than 500 nM.
Consider `CC1c2ncc(C(F)(F)F)n2CCN1c1cnnc(-c2c[nH]c3ncc(F)cc23)n1` (stereo not shown) [Example 1-10, 7-[3-(5-fluoro-1H-pyrrolo[2,3-b]pyridin-3-yl)-1,2,4-triazin-5-yl]-8-methyl-3-(trifluoromethyl)-5,6,7,8-tetrahydroimidazo[1,2-a]pyrazine], for which the IC50 at JAK3 and on JAK2 was 10 to 500 nM in each case.
